Values after ≈ are worked out from the molar mass of the structure shown. Like-named read-outs stand apart in the source and are kept apart here.
What was measured:
Format in all cases: cell-based
[1] = system: Penicillium verrucosum var. cyclopium (food isolate); assay: Antifungal bioassay (MIC/MFC)
Protocol: For the antifungal bioassays, six fungi were used: Aspergillus niger (ATCC 6275), Aspergillus fumigatus (ATCC 1022), Aspergillus versicolor (ATCC 11730), Penicillium funiculosum (ATCC 36839), Trichoderma viride (IAM 5061), and Penicillium verrucosum var. cyclopium (food isolate). The organisms were obtained from the Mycological Laboratory, Department of Plant Physiology, Institute for Biological Research “Siniša Stankovic”, Belgrade, Serbia. All experiments were performed in duplicate.

[2] = system: Bacillus cereus (clinical isolate); assay: Antibacterial microdilution (MIC/MBC); settings: Bacillus cereus, B.c. (B. cereus); for MIC: read-out: MIC
Protocol: (§1) The synthesized compounds (Table 1) were evaluated for their antibacterial activity against a panel of eight species using a microdilution method with ampicillin and streptomycin as reference drugs. […] The order of activity can be presented as: 8 > 11 > 2 > 1 > 12 > 3 > 17 > 7 > 5 > 13 > 14 > 16 > 9 > 4 = 6 > 15 > 10. […] Cloacae. […] The most sensitive bacteria appeared to be En. cloacae, while E. coli was the most resistant one, followed by M. flavus.
(§2) The following Gram-negative bacteria: Escherichia coli (ATCC 35210), Enterobacter cloacae (clinical isolate), Salmonella typhimurium (ATCC 13311), as well as Gram-positive bacteria: Listeria monocytogenes (NCTC 7973), Bacillus cereus (clinical isolate), and Staphylococcus aureus (ATCC 6538) were used. The organisms were obtained from the Mycological Laboratory, Department of Plant Physiology, Institute for Biological Research “Siniša Stankovic”, Belgrade, Serbia. The minimum inhibitory (MIC) and minimum bactericidal (MBC) concentrations were determined by the modified microdilution method, as previously reported.

[3] = system: Enterobacter cloacae (clinical isolate); assay: Antibacterial microdilution (MIC/MBC); settings: En.cl (En. cloacae)
Protocol: as §1, §2

M. flavus = assay: Antibacterial microdilution (MIC/MBC); settings: Micrococcus flavus; M.f. (M. flavus)
Protocol: as §1, §2

P. aeruginosa = assay: Antibacterial microdilution (MIC/MBC); settings: Pseudomonas aeruginosa, P.a. (P. aeruginosa); for MIC: read-out: MIC
Protocol: as §1, §2

[4] = system: Listeria monocytogenes (NCTC 7973); assay: Antibacterial microdilution (MIC/MBC); settings: L.m. (L. monocytogenes)
Protocol: as §1, §2

[5] = system: Salmonella typhimurium (ATCC 13311); assay: Antibacterial microdilution (MIC/MBC); settings: Salmonella enterica, S.t. (S. typhimurium); for MIC: read-out: MIC
Protocol: as §1, §2

[6] = system: Escherichia coli (ATCC 35210); assay: Antibacterial microdilution (MIC/MBC); settings: Escherichia coli, ATCC35210, E. coli; for MIC: read-out: MIC
Protocol: as §1, §2

[7] = system: Staphylococcus aureus (ATCC 6538); assay: Antibacterial microdilution (MIC/MBC); settings: Staphylococcus aureus, ATCC6538, S.a. (S. aureus); for MIC: read-out: MIC
Protocol: as §1, §2

A. ochraceus = assay: Antifungal bioassay (MIC/MFC); settings: Aspergillus ochraceus, A.o. (A. ochraceus); for MIC: read-out: MIC
Protocol: (§3) For the antifungal bioassays, six fungi were used: […] The organisms were obtained from the Mycological Laboratory, Department of Plant Physiology, Institute for Biological Research “Siniša Stankovic”, Belgrade, Serbia. All experiments were performed in duplicate.

[8] = system: Aspergillus versicolor (ATCC 11730); assay: Antifungal bioassay (MIC/MFC); settings: ATCC11730, A.v. (A. versicolor)
Protocol: as §3

[9] = system: Aspergillus niger (ATCC 6275); assay: Antifungal bioassay (MIC/MFC); settings: ATCC6275, A.n. (A. niger)
Protocol: as §3

[10] = system: Penicillium funiculosum (ATCC 36839); assay: Antifungal bioassay (MIC/MFC); settings: Talaromyces funiculosus, ATCC36839; P.f. (P. funiculosum)
Protocol: as §3

[11] = system: Aspergillus fumigatus (ATCC 1022); assay: Antifungal bioassay (MIC/MFC); settings: ATCC1022, A.f. (A. fumigatus)
Protocol: as §3

P. ochrochloron = assay: Antifungal bioassay (MIC/MFC); settings: Penicillium ochrochloron; for MFC: P.o. (P. ochrochloron); for MIC: P.o. (P. ochrochloron; text: P. ochramensis), read-out: MIC
Protocol: as §3

[12] = system: Trichoderma viride (IAM 5061); assay: Antifungal bioassay (MIC/MFC); settings: Trichoderma viride, IAM5061, T.v. (T. viride); for MIC: read-out: MIC
Protocol: as §3

[13] = Enterobacter cloacae, read-out: MIC
[14] = Listeria monocytogenes, NCTC7973
[15] = Listeria monocytogenes, NCTC7973, read-out: MIC

| Structure (SMILES) | MFC [1] | MIC [1] | MBC [2] | MIC [2] | MBC ([3]; Enterobacter cloacae) | MIC [3, 13] | MBC (M. flavus) | MIC (M. flavus) | MFC (A. ochraceus) | MIC (A. ochraceus) | MFC [8] | MIC [8] | MFC [9] | MIC [9] | MFC [10] | MIC [10] | MFC [11] | MIC [11] | MFC (P. ochrochloron) | MIC (P. ochrochloron) | other results |
| --- | --- | --- | --- | --- | --- | --- | --- | --- | --- | --- | --- | --- | --- | --- | --- | --- | --- | --- | --- | --- | --- |
| COC(=O)c1[nH]c2ccc(F)cc2c1/C=C1\SC(=S)N(C(C(=O)O)C(C)C)C1=O (centres unmarked) [Compound 8, (Z)-2-(5-((5-fluoro-2-(methoxycarbonyl)-1H-indol-3-yl)methylene)-4-oxo-2-thioxothiazolidin-3-yl)-3-methylbutanoic acid] | 120 ± 40 µg/mL (≈ 275 µM) | 60 ± 6 µg/mL (≈ 137 µM) | 60 ± 6 µg/mL (≈ 137 µM) | 30 ± 10 µg/mL (≈ 68.7 µM) | 8 ± 0.6 µg/mL (≈ 18.3 µM) | 4 µg/mL (≈ 9.16 µM) | 60 ± 6 µg/mL (≈ 137 µM) | 30 ± 10 µg/mL (≈ 68.7 µM) | 15 ± 3 µg/mL (≈ 34.4 µM) | 8 ± 0.6 µg/mL (≈ 18.3 µM) | 30 ± 10 µg/mL (≈ 68.7 µM) | 15 ± 3 µg/mL (≈ 34.4 µM) | 30 ± 10 µg/mL (≈ 68.7 µM) | 15 ± 3 µg/mL (≈ 34.4 µM) | 30 ± 10 µg/mL (≈ 68.7 µM) | 15 ± 3 µg/mL (≈ 34.4 µM) | 120 ± 40 µg/mL (≈ 275 µM) | 60 ± 6 µg/mL (≈ 137 µM) | 30 ± 10 µg/mL (≈ 68.7 µM) | 15 ± 3 µg/mL (≈ 34.4 µM) | MIC [3]: 4 ± 5 µg/mL (≈ 9.16 µM); MBC (P. aeruginosa): 8 ± 0.6 µg/mL (≈ 18.3 µM); MIC (P. aeruginosa): 4 ± 5 µg/mL (≈ 9.16 µM); MIC [4]: 15 ± 1 µg/mL (≈ 34.4 µM); MBC [4, 14]: 30 ± 10 µg/mL (≈ 68.7 µM); MIC [4, 15]: 15 µg/mL (≈ 34.4 µM); MBC [5]: 15 ± 9 µg/mL (≈ 34.4 µM); MIC [5]: 8 ± 9 µg/mL (≈ 18.3 µM); MBC [6]: 15 ± 9 µg/mL (≈ 34.4 µM); MIC [6]: 8 ± 1 µg/mL (≈ 18.3 µM); MBC [7]: 60 ± 6 µg/mL (≈ 137 µM); MIC [7]: 30 ± 10 µg/mL (≈ 68.7 µM) |
| c1ccc(-c2ccc(C(c3ccccc3)n3ccnc3)cc2)cc1 (centres unmarked) [Bifonazole, reference compound] |  |  |  |  |  |  |  |  | 200 ± 10 µg/mL (≈ 644 µM) | 150 ± 50 µg/mL (≈ 483 µM) | 200 ± 10 µg/mL (≈ 644 µM) | 100 ± 2 µg/mL (≈ 322 µM) | 200 ± 10 µg/mL (≈ 644 µM) | 150 ± 50 µg/mL (≈ 483 µM) | 250 ± 50 µg/mL (≈ 805 µM) | 200 ± 10 µg/mL (≈ 644 µM) | 200 ± 10 µg/mL (≈ 644 µM) | 150 ± 50 µg/mL (≈ 483 µM) | 250 ± 50 µg/mL (≈ 805 µM) | 200 ± 10 µg/mL (≈ 644 µM) | MFC ([1]; P.v.c. (P. cyclpoium var verucosum), read-out: MFC): 200 ± 10 µg/mL (≈ 644 µM); MIC ([1]; P.v.c. (P. cyclpoium var verucosum), read-out: MIC): 100 ± 9 µg/mL (≈ 322 µM); MFC [12]: 200 ± 10 µg/mL (≈ 644 µM); MIC [12]: 150 ± 50 µg/mL (≈ 483 µM) |
| CC(=O)N1CCN(c2ccc(OCC3COC(Cn4ccnc4)(c4ccc(Cl)cc4Cl)O3)cc2)CC1 (centres unmarked) [Ketoconazole, reference compound] | 300 ± 10 µg/mL (≈ 565 µM) | 200 ± 10 µg/mL (≈ 376 µM) |  |  |  |  |  |  | 500 ± 6 µg/mL (≈ 941 µM) | 250 ± 50 µg/mL (≈ 470 µM) | 500 ± 2 µg/mL (≈ 941 µM) | 200 ± 10 µg/mL (≈ 376 µM) | 500 ± 4 µg/mL (≈ 941 µM) | 200 ± 10 µg/mL (≈ 376 µM) | 500 ± 3 µg/mL (≈ 941 µM) | 200 ± 10 µg/mL (≈ 376 µM) | 500 ± 1 µg/mL (≈ 941 µM) | 200 ± 10 µg/mL (≈ 376 µM) | 3500 ± 30 µg/mL (≈ 6590 µM) | 2500 ± 300 µg/mL (≈ 4700 µM) | MFC [12]: 1500 ± 90 µg/mL (≈ 2820 µM); MIC [12]: 1000 ± 100 µg/mL (≈ 1880 µM) |
| [H]/N=C(/N)N[C@H]1[C@H](O)[C@@H](O)[C@H](O[C@@H]2O[C@@H](C)[C@](O)(C=O)[C@H]2O[C@@H]2O[C@@H](CO)[C@H](O)[C@@H](O)[C@@H]2NC)[C@@H](N/C(N)=N\[H])[C@@H]1O [Streptomycin, reference compound] |  |  | 3 ± 0.5 µg/mL (≈ 5.16 µM) | 1.5 ± 0.2 µg/mL (≈ 2.58 µM) | 300 ± 30 µg/mL (≈ 516 µM) | 200 ± 5 µg/mL (≈ 344 µM) | 300 ± 30 µg/mL (≈ 516 µM) | 200 µg/mL (≈ 344 µM) |  |  |  |  |  |  |  |  |  |  |  |  | MBC (P. aeruginosa): 200 µg/mL (≈ 344 µM); MIC (P. aeruginosa): 100 ± 50 µg/mL (≈ 172 µM); MBC [4, 14]: 300 ± 30 µg/mL (≈ 516 µM); MIC [4, 15]: 150 ± 30 µg/mL (≈ 258 µM); MBC [5]: 200 ± 9 µg/mL (≈ 344 µM); MIC [5]: 100 ± 50 µg/mL (≈ 172 µM); MBC [6]: 200 µg/mL (≈ 344 µM); MIC [6]: 100 ± 50 µg/mL (≈ 172 µM); MBC [7]: 200 µg/mL (≈ 344 µM); MIC [7]: 100 µg/mL (≈ 172 µM) |

— PMC9865890, “N-Derivatives of (Z)-Methyl 3-(4-Oxo-2-thioxothiazolidin-5-ylidene)methyl)-1H-indole-2-carboxylates as Antimicrobial Agents—In Silico and In Vitro Evaluation” (Pharmaceuticals, 2023)
